{"source": "paper PMC9963121", "about": "“Development of Combretastatin A-4 Analogues as Potential Anticancer Agents with Improved Aqueous Solubility” (Molecules, 2023)", "key": {"[1]": {"test_system": "AGS gastric cancer cell", "assay": "MTT cell growth inhibition assay, AGS gastric cancer cells", "format": "cell-based", "settings": "Homo sapiens, mean ± SD of three experiments", "text": "(§1) Initially, we designed and synthesised seven compounds—9a and 12a1–12a6—and evaluated the anticancer activity and aqueous solubility. We evaluated the cytotoxic effects of these stilbene nitrile analogues against a panel of four human cancer cell lines (HCT-116, BEL-7402, MCF-7 and AGS) and two human non-cancerous normal cell lines (L-02 and MCF-10A), using CA-4 as a control. The compounds were screened for aqueous solubility in 0.01 M PBS using a high throughput UV method. […] It is possible that the size of the nitrogen heterocycle had little effect on the activity of these compounds. […] The aqueous solubility of all the compounds 12a1–12a6 was higher than that of 9a, particularly that of 12a1 and 12a2 containing piperazine rings. […] Of the six compounds with improved aqueous solubility, 12a1 had the best activity.\n(§2) All human cell lines were used in this study. AGS gastric cancer cell, BEL-7402 liver cancer cell, HCT-116 colorectal cancer cell, L-02 normal liver cell, MCF-7 breast cancer cell, and MCF-10A normal breast cell were initially purchased from American Type Culture Collection (ATCC, Manassas, VA, USA). RPMI-1640 media, DMEM and FBS, were provided by Gibco Company. The cells were maintained in DMEM or RPMI-1640, supplemented with 10% FBS, 100 IU/mL penicillin and […] streptomycin, and at 37 °C in a humidified atmosphere containing 5% CO2.\n(§3) The experiment was carried out according to the method of reference."}, "[2]": {"test_system": "HCT-116 colorectal cancer cell", "assay": "MTT cell growth inhibition assay, HCT-116 colorectal cancer cells", "format": "cell-based, human", "settings": "Homo sapiens, HCT-116; MTT; mean ± SD of three experiments", "text": "as §1, §2, §3"}, "[3]": {"test_system": "BEL-7402 liver cancer cell", "assay": "MTT cell growth inhibition assay, BEL-7402 liver cancer cells", "format": "cell-based", "settings": "Homo sapiens, mean ± SD of three experiments, read-out: IC50 BEL-7402 Hepatoma Cells", "text": "as §1, §2, §3"}, "[4]": {"test_system": "MCF-10A normal breast cell", "assay": "MTT cell growth inhibition assay, MCF-10A normal breast cells", "format": "cell-based", "settings": "Homo sapiens, mean ± SD of three experiments, read-out: IC50 MCF-10A Normal Breast Epithelial Cells", "text": "as §1, §2, §3"}, "[5]": {"test_system": "L-02 normal liver cell", "assay": "MTT cell growth inhibition assay, L-02 normal liver cells", "format": "cell-based", "settings": "Homo sapiens, mean ± SD of three experiments", "text": "as §1, §2, §3"}, "[6]": {"assay": "Aqueous solubility in 0.01 M PBS, high throughput UV method", "format": "physicochemical", "settings": "aqueous phosphate buffer, aqueous buffer; sodium phosphate buffer 0.01 M, pH 7.4, 22 ± 2 °C; mean ± SD", "text": "as §1\nThe aqueous solubility was determined as a previously reported procedure. Put simply, a certain amount of powdered compound was placed in a 2 mL centrifuge tube and mixed with an appropriate volume of aqueous phosphate buffer (10 mM, pH 7.4) to make the whole system supersaturated. The mixtures were sonicated (KQ5200DE numerical control ultrasonic cleaner, Kunshan Ultrasonic Instrument Co., Ltd., SuZhou, China) for 20 min. After sonication, the mixture was allowed to equilibrate at RT (22 ± 2 °C) for 1.5 h with vortex shaking (1200 rpm). Then centrifuged at 3000 rpm for 15 min (1-14k, sigma, Darmstadt, Germany), the supernatant was filtered with a 0.22 µM filter membrane. And then, take 150 µL of filtrate and add it to 96-well UV plate with triplicate. Draw 150 μL of blank solution was added into plate as blank control. The 96-well UV plate prepared above was read on a Synergy HTX Multifunctional Microplate Reader (BioTek, Vermont, USA) at 294 nm. The absorbance of the sample was corrected according to the UV response of the sample and blank solution, and the corrected UV response values were used for solubility calculations by bringing into the standard curve of the compound. […]\n1.5. Solubility Assessment\nThe aqueous solubility was determined as previously reported using the high throughput solubility screens procedure published by Bruno Bard et al [9. 10]. Put simply, a certain amount of powdered compound was placed in a 2 ml centrifuge tube and mixed with an appropriate volume of aqueous phosphate buffer (0.01 M, pH 7.4) to make the whole system supersaturated. The mixtures were sonicated (KQ5200DE numerical control ultrasonic cleaner, Kunshan Ultrasonic Instrument Co., Ltd., China) for 20 min. After sonication, the mixture was allowed to equilibrate at room temperature (22 ± 2°C) for 1.5 h with vortex shaking (1200 rpm). Then the centrifuge tube was put into the centrifuge (1-14k, sigma, Germany), centrifuged with 3000 rpm for 15 minutes, 0.22 µM filter membrane filtration supernatant, then take 150 µl filtrate and add it to 96-well UV plate, with three well for each compound. Draw 150 μL blank solution were added into 96 well-plate as blank control. The 96-well UV […]\nplate prepared above was read on a SynergyHTX Multifunctional microplate reader (BioTek, USA) at 338 nm (compounds 12a-12d and 15-20) or 370 nm (compounds 9a-d). The absorbance of the sample was corrected according to the UV response of the sample and blank solution, and the corrected UV responses value were used for solubility calculations by bring into the standard curve of the compound. […]"}}}
{"smiles": "COc1cc(/C(C#N)=C/c2ccc(NC(=O)CN3CCN(C)CC3)cc2)cc(OC)c1OC", "note": "[12a1]", "values": [{"measurement": "IC50", "setting": "[1]", "result": "10.7 ± 0.52", "unit": "µM"}, {"measurement": "IC50", "setting": "[2]", "result": "2.44 ± 0.29", "unit": "µM"}, {"measurement": "IC50", "setting": "[3]", "result": "6.36 ± 0.61", "unit": "µM"}, {"measurement": "IC50", "setting": "[4]", "result": "20.9 ± 0.78", "unit": "µM"}, {"measurement": "IC50", "setting": "[5]", "result": "32.7 ± 1.44", "unit": "µM"}, {"measurement": "solubility thermodynamic at 1.5 h", "setting": "[6]", "result": "18.2 ± 0.619", "unit": "mg/mL"}]}
